According to US20070026071A1, “Magnesium salt proton pump inhibitor dosage forms” (QPharma, LLC, priority 2005, published 2007):
Like-named read-outs stand apart in the source and are kept apart here.

Key:
[1] = Phase solubility study in pH 6.8 buffer (simulated intestinal fluid) and purified water; format: physicochemical; settings: for Solubility: Active content equivalent to base in pH 6.8 buffer / Solubility: Active content equivalent to base in purified water: ambient temperature (approx. 22° C.), shaken approx. 30 minutes
Protocol: In this study the solubility of Omeprazole Magnesium Trihydrate and Esomeprazole Magnesium Dihydrate active materials in pH 6.8 buffer and purified water was performed. […] A pH 6.8 buffer is prepared as described under the monograph of Omeprazole Delayed Release capsules for dissolution test in United States Pharmacopoeia. Purified water and pH 6.8 buffer were used at ambient temperature (approx. 22° C.).
Samples of actives and tablet dosage form powders were used in the study. Each sample contains approx. 200 mg base equivalent Omeprazole and Esomeprazole as salts and such samples were transferred in to a centrifuge tube containing 20 mL of appropriate medium. Centrifuge tubes containing these suspensions were shaken for approx. 30 minutes on a wrist action shaker and samples were initially filtered through Whatman filter paper and subsequently filtered through 0.45 micron PTFE cartridge filters. The samples were further diluted by pipetting 1.0 mL in to 100 mL volumetric flasks and made up to the volume with appropriate medium. The optical density values were measured using a suitable UV-Visible spectrophotometer at 275 nm wavelength.

[2] = 25° C., cited from earlier work
[3] = from commercially marketed dosage forms; cited from earlier work

Structure (SMILES)	Solubility: Active content equivalent to base in pH 6.8 buffer [1] [mg/mL]	fold increased solubility by the fluid bed process as compared to the active when tested alone ([1]; purified water)	Solubility: Active content equivalent to base in purified water ([1]; purified water) [mg/mL]	percent bioavailability [3]	also measured
COc1ccc2[n-]c([S@@+]([O-])Cc3ncc(C)c(OC)c3C)nc2c1.COc1ccc2[n-]c([S@@+]([O-])Cc3ncc(C)c(OC)c3C)nc2c1.O.O.[Mg+2] [Esomeprazole Magnesium Dihydrate]	1.17	approx. 1.6 fold	5.02	–	–
Cc1c(OCC(F)(F)F)ccnc1C[S+]([O-])c1nc2ccccc2[nH]1 (stereo not shown) [Lansoprazole, 2-[[[3-methyl-4-(2,2,2-trifluroethoxy)-2-pyridyl]methyl]sulfinyl]benzimidazole]	–	–	–	80-85%	degradation half-life in aqueous solution ([2]; pH 5.0): approximately 0.5 hour; degradation half-life in aqueous solution ([2]; pH 7.0): approximately 18 hours
COc1ccc2[n-]c([S+]([O-])Cc3ncc(C)c(OC)c3C)nc2c1.COc1ccc2[n-]c([S+]([O-])Cc3ncc(C)c(OC)c3C)nc2c1.O.O.O.[Mg+2] (stereo not shown) [Omeprazole Magnesium Trihydrate]	0.31	approx. 10 fold	0.26	–	fold increased solubility by the fluid bed process as compared to the active when tested alone ([1]; pH 6.8 buffer (simulated intestinal fluid)): 4 fold
COc1ccnc(C[S+]([O-])c2nc3ccc(OC(F)F)cc3[nH]2)c1OC (stereo not shown) [Pantoprazole]	–	–	–	77%	–
COCCCOc1ccnc(C[S+]([O-])c2nc3ccccc3[nH]2)c1C (stereo not shown) [Rabeprazole]	–	–	–	52%	–
COc1ccc2[nH]c([S+]([O-])Cc3ncc(C)c(OC)c3C)nc2c1 (stereo not shown) [omeprazole, 2-[2-(3,5-dimethyl-4-methoxy)-pyridylmethylsulfinyl]-(5-methoxy)-benzimidazole]	–	–	–	30-40%	–
